Consider 15 compounds from ChEMBL document CHEMBL4765257, “Synthesis and structure-activity relationship study of pyrrolidine-oxadiazoles as anthelmintics against Haemonchus contortus” (Eur J Med Chem, 2020).

≈ marks a conversion by molar mass, not a printed value.

The subject of the first series is Haemonchus contortus. Kind of series: Anti-helmintic activity against third-stage Haemonchus contortus larvae assessed as inhibition of xL3 motility measured after 72 hrs. The format is functional, organism-based.
Conditions: not given; call rule not given here
By IC50 is commonly meant the concentration at which inhibition is half-maximal. Consider `O=C(Nc1ccc(Cl)cc1)N1CCC[C@H]1c1nc(-c2ccc(Br)cc2)no1`, for which the IC50 result is on record as “Active”.
The same measure, in the same setting: the result for `O=C(Nc1ccc(Cl)cc1)N1CCC[C@H]1c1nc(-c2ccccc2F)no1` reads “Active”; that for `O=C(Nc1ccc(Cl)cc1)N1CCC[C@H]1c1nc(-c2ccc(I)cc2)no1`, “Active”.

The series is the same for the next values; noted with them: Haemonchus contortus, 72 h; read-out: IC50.
On to `O=C(Nc1ccc(Cl)cc1)N1CCC[C@H]1c1nc(-c2ccccc2)no1`, for which the IC50 stood at 5.3 µM.
On the same count and under the same terms, the result for `O=C(Nc1ccc(Br)cc1)N1CCC[C@H]1c1nc(-c2ccccc2)no1` reads 1.8 µM.
Regarding `N#Cc1ccc(NC(=O)N2CCC[C@H]2c2nc(-c3ccccc3)no2)cc1`, the IC50 is 18 µM.
The same measure, in the same setting: the result for `O=C(Nc1ccc(Cl)cc1)N1CCC[C@H]1c1nc(-c2cccc(Cl)c2)no1` reads 3 µM.
Consider `N#Cc1ccc(-c2noc([C@@H]3CCCN3C(=O)Nc3ccc(Cl)cc3)n2)cc1`, for which the half-inhibitory concentration (IC50) is greater than 100 µM.
Still for that read-out and setting: the figure for `O=C(Nc1ccc(C(F)(F)F)cc1)N1CCC[C@H]1c1nc(-c2ccccc2)no1` is 9.5 µM; for `O=C(Nc1ccc(Cl)cc1)N1CCC[C@H]1c1nc(-c2ccc(Cl)cc2)no1` it is 1.5 µM; for `O=C(Nc1ccc(I)cc1)N1CCC[C@H]1c1nc(-c2ccccc2)no1` it is 5.6 µM.
Same read-out and setting: the figure for `O=C(Nc1ccc(Cl)cc1)N1CCC[C@H]1c1nc(-c2cccc(O)c2)no1` is 0.78 µM; for `O=C(Nc1ccc(Cl)cc1)N1CCC[C@H]1c1nc(-c2ccc(F)cc2)no1` it is 1.3 µM.
On the same count and under the same terms, the result for `O=C(Nc1ccc(Cl)cc1)N1CCC[C@H]1c1nc(-c2ccccc2Br)no1` reads 12 µM; that for `C[C@](C#N)(COc1cc(C#N)ccc1C(F)(F)F)NC(=O)c1ccc(SC(F)(F)F)cc1` [MONEPANTEL], 0.16 µM.

The subject of another series is MCF-10A. Description: Cytotoxicity against human MCF-10A cells assessed as inhibition of cell viability measured after 48 hrs by DAPI staining based analysis.
Conditions: not given
With `O=C(Nc1ccc(Cl)cc1)N1CCC[C@H]1c1nc(-c2ccccc2)no1`, the half-inhibitory concentration (IC50) is greater than 50 µM.
The same measure, in the same setting: the figure for `O=C(Nc1ccc(Br)cc1)N1CCC[C@H]1c1nc(-c2ccccc2)no1` is greater than 50 µM; for `N#Cc1ccc(NC(=O)N2CCC[C@H]2c2nc(-c3ccccc3)no2)cc1` it is greater than 50 µM; for `O=C(Nc1ccc(Cl)cc1)N1CCC[C@H]1c1nc(-c2cccc(Cl)c2)no1` it is greater than 50 µM.
The same measure, in the same setting: the result for `N#Cc1ccc(-c2noc([C@@H]3CCCN3C(=O)Nc3ccc(Cl)cc3)n2)cc1` reads greater than 50 µM; that for `O=C(Nc1ccc(C(F)(F)F)cc1)N1CCC[C@H]1c1nc(-c2ccccc2)no1`, greater than 50 µM.
On the same count and under the same terms, the figure for `O=C(Nc1ccc(Cl)cc1)N1CCC[C@H]1c1nc(-c2ccc(Cl)cc2)no1` is greater than 50 µM; for `O=C(Nc1ccc(I)cc1)N1CCC[C@H]1c1nc(-c2ccccc2)no1` it is greater than 50 µM; for `O=C(Nc1ccc(Cl)cc1)N1CCC[C@H]1c1nc(-c2cccc(O)c2)no1` it is greater than 50 µM.
For `O=C(Nc1ccc(Cl)cc1)N1CCC[C@H]1c1nc(-c2ccc(F)cc2)no1`, the IC50 was greater than 50 µM.
Still for that read-out and setting: the figure for `O=C(Nc1ccc(Cl)cc1)N1CCC[C@H]1c1nc(-c2ccc(Br)cc2)no1` is greater than 50 µM.
Still for that read-out and setting: the result for `O=C(Nc1ccc(Cl)cc1)N1CCC[C@H]1c1nc(-c2ccccc2Br)no1` reads greater than 50 µM; that for `O=C(Nc1ccc(Cl)cc1)N1CCC[C@H]1c1nc(-c2ccccc2F)no1`, greater than 50 µM.
Still for that read-out and setting: the result for `O=C(Nc1ccc(Cl)cc1)N1CCC[C@H]1c1nc(-c2ccc(I)cc2)no1` reads greater than 50 µM; that for `C[C@](C#N)(COc1cc(C#N)ccc1C(F)(F)F)NC(=O)c1ccc(SC(F)(F)F)cc1` [MONEPANTEL], 26.9 µM.

Tested on in the next series: not listed separately
Kind of series: Intrinsic clearence in human liver microsomes at 0.5 uM measured upto 60 mins in presence of NADPH measured per mg protein. In kind it is ADME, Microsome. The conditions noted are these: read-out: CLH. Background: Microsomes from liver hold many membrane-bound enzymes, among them those of drug oxidation.
For `O=C(Nc1ccc(Cl)cc1)N1CCC[C@H]1c1nc(-c2ccccc2)no1`, the microsomal CLint at 0.5 µM worked out at 19 µL/min/mg.

Tested on in the next series: not listed separately
Kind of series: Kinetic solubility of the compound in 0.01M HCl at pH 2.0 incubated for 30 mins by nephelometry. In kind it is physicochemical. The conditions noted are these: read-out: Kinetic_solubility.
`O=C(Nc1ccc(Cl)cc1)N1CCC[C@H]1c1nc(-c2ccccc2)no1`: the solubility kinetic at 0.5 h stood at 1.6 µg/mL (≈ 4.34 µM).

Tested on in another series: not listed separately
Description: Kinetic solubility of the compound in phosphate buffer pH 6.5 incubated for 30 mins by nephelometry. The format is physicochemical. The conditions noted are these: read-out: Kinetic_solubility.
As to `O=C(Nc1ccc(Cl)cc1)N1CCC[C@H]1c1nc(-c2ccccc2)no1`, the solubility kinetic at 0.5 h worked out at 1.6 µg/mL (≈ 4.34 µM).

A further series relates to Haemonchus contortus. Kind of series: Anti-helmintic activity against fourth stage of Haemonchus contortus larvae assessed as reduction in development of L4 stage incubated for 72 hrs followed by reincubation in humidified environment for 4 days. The format is functional, organism-based.
Conditions: not given
Turning to `O=C(Nc1ccc(Cl)cc1)N1CCC[C@H]1c1nc(-c2ccccc2)no1`, the IC50 came to 21 µM.
`O=C(Nc1ccc(Br)cc1)N1CCC[C@H]1c1nc(-c2ccccc2)no1`: the IC50 was 12 µM.
Take `N#Cc1ccc(NC(=O)N2CCC[C@H]2c2nc(-c3ccccc3)no2)cc1`: the IC50 was greater than 100 µM.
Same read-out and setting: the result for `O=C(Nc1ccc(Cl)cc1)N1CCC[C@H]1c1nc(-c2cccc(Cl)c2)no1` reads 7.6 µM; that for `N#Cc1ccc(-c2noc([C@@H]3CCCN3C(=O)Nc3ccc(Cl)cc3)n2)cc1`, greater than 100 µM; that for `O=C(Nc1ccc(C(F)(F)F)cc1)N1CCC[C@H]1c1nc(-c2ccccc2)no1`, 7 µM.
With `O=C(Nc1ccc(Cl)cc1)N1CCC[C@H]1c1nc(-c2ccc(Cl)cc2)no1`, the IC50 was 20 µM.
Still for that read-out and setting: the figure for `O=C(Nc1ccc(I)cc1)N1CCC[C@H]1c1nc(-c2ccccc2)no1` is 3.2 µM.
Same read-out and setting: the result for `O=C(Nc1ccc(Cl)cc1)N1CCC[C@H]1c1nc(-c2cccc(O)c2)no1` reads 22.4 µM; that for `O=C(Nc1ccc(Cl)cc1)N1CCC[C@H]1c1nc(-c2ccc(F)cc2)no1`, 19 µM.
The same measure, in the same setting: the figure for `O=C(Nc1ccc(Cl)cc1)N1CCC[C@H]1c1nc(-c2ccc(Br)cc2)no1` is greater than 100 µM; for `O=C(Nc1ccc(Cl)cc1)N1CCC[C@H]1c1nc(-c2ccccc2Br)no1` it is 22 µM; for `O=C(Nc1ccc(Cl)cc1)N1CCC[C@H]1c1nc(-c2ccccc2F)no1` it is greater than 100 µM.
`O=C(Nc1ccc(Cl)cc1)N1CCC[C@H]1c1nc(-c2ccc(I)cc2)no1`: the IC50 is 50 µM.
On the same count and under the same terms, the figure for `C[C@](C#N)(COc1cc(C#N)ccc1C(F)(F)F)NC(=O)c1ccc(SC(F)(F)F)cc1` [MONEPANTEL] is 0.075 µM.

Tested on in another series: not listed separately
Kind of series: Cytotoxicity against human MCF-10A cells assessed as inhibition of cell viability at 50 uM measured after 48 hrs by DAPI staining based analysis. The conditions noted are these: read-out: INH.
For `O=C(Nc1ccc(Cl)cc1)N1CCC[C@H]1c1nc(-c2ccccc2)no1`, the cytotoxicity at 48 h, 50 µM came to 7.5%.
As to `O=C(Nc1ccc(Br)cc1)N1CCC[C@H]1c1nc(-c2ccccc2)no1`, the cytotoxicity at 48 h, 50 µM was 20%.
On to `N#Cc1ccc(NC(=O)N2CCC[C@H]2c2nc(-c3ccccc3)no2)cc1`, for which the cytotoxicity at 48 h, 50 µM was 27%.
Same read-out and setting: the result for `O=C(Nc1ccc(Cl)cc1)N1CCC[C@H]1c1nc(-c2cccc(Cl)c2)no1` reads 17%.
Same read-out and setting: the result for `N#Cc1ccc(-c2noc([C@@H]3CCCN3C(=O)Nc3ccc(Cl)cc3)n2)cc1` reads 11%; that for `O=C(Nc1ccc(C(F)(F)F)cc1)N1CCC[C@H]1c1nc(-c2ccccc2)no1`, 33%.
The same measure, in the same setting: the result for `O=C(Nc1ccc(Cl)cc1)N1CCC[C@H]1c1nc(-c2ccc(Cl)cc2)no1` reads 22%; that for `O=C(Nc1ccc(I)cc1)N1CCC[C@H]1c1nc(-c2ccccc2)no1`, 8%; that for `O=C(Nc1ccc(Cl)cc1)N1CCC[C@H]1c1nc(-c2cccc(O)c2)no1`, 32%.
For `O=C(Nc1ccc(Cl)cc1)N1CCC[C@H]1c1nc(-c2ccc(F)cc2)no1`, the cytotoxicity at 48 h, 50 µM was determined as 22%.
Still for that read-out and setting: the figure for `O=C(Nc1ccc(Cl)cc1)N1CCC[C@H]1c1nc(-c2ccc(Br)cc2)no1` is 30%.
Consider `O=C(Nc1ccc(Cl)cc1)N1CCC[C@H]1c1nc(-c2ccccc2Br)no1`, for which the cytotoxicity at 48 h, 50 µM is 30%.
Regarding `O=C(Nc1ccc(Cl)cc1)N1CCC[C@H]1c1nc(-c2ccccc2F)no1`, the cytotoxicity at 48 h, 50 µM is 30%.
The same measure, in the same setting: the result for `O=C(Nc1ccc(Cl)cc1)N1CCC[C@H]1c1nc(-c2ccc(I)cc2)no1` reads 23%; that for `C[C@](C#N)(COc1cc(C#N)ccc1C(F)(F)F)NC(=O)c1ccc(SC(F)(F)F)cc1` [MONEPANTEL], 99%.

Tested on in a further series: not listed separately
Kind of series: Half life in mouse liver microsomes at 0.5 uM measured upto 60 mins in presence of NADPH. In kind it is ADME, Microsome.
Conditions: not given
By half-life is commonly meant the time in which the quantity being followed falls by half. Regarding `O=C(Nc1ccc(Cl)cc1)N1CCC[C@H]1c1nc(-c2ccccc2)no1`, the half-life at 0.5 µM came out at 20 min.

Tested on in a further series: not listed separately
Kind of series: Half life in human liver microsomes at 0.5 uM measured upto 60 mins in presence of NADPH. In kind it is ADME, Microsome.
Conditions: not given
`O=C(Nc1ccc(Cl)cc1)N1CCC[C@H]1c1nc(-c2ccccc2)no1`: the half-life at 0.5 µM is 93 min.

Tested on in the next series: not listed separately
Description: Intrinsic clearence in mouse liver microsomes at 0.5 uM measured upto 60 mins in presence of NADPH measured per mg protein. In kind it is ADME, Microsome. As to conditions: read-out: CLH.
With `O=C(Nc1ccc(Cl)cc1)N1CCC[C@H]1c1nc(-c2ccccc2)no1`, the microsomal CLint at 0.5 µM amounted to 89 µL/min/mg.
